Source: ChEMBL document CHEMBL4376815, “The Development Process for Discovery and Clinical Advancement of Modern Antimalarials” (J Med Chem, 2019)
In brackets after ≈: the same amount, converted by molar mass.

Assays:
[1] = test system: Plasmodium falciparum; assay: Antimalarial activity against Plasmodium falciparum TM90C2A infected in human erythrocytes assessed as reduction in [3H]-hypoxanthine incorporation incubated for 48 hrs followed by addition of [3H]-hypoxanthine and measured after 24 hrs by liquid scintillation counting method; type: functional, organism-based
[2] = test system: Plasmodium berghei; assay: Antimalarial activity against Plasmodium berghei infected in NMRI mouse assessed as reduction in parasite growth at 5.3 mg/kg, po administered daily for 3 consecutive days by flow cytometric analysis relative to control; type: functional; set-up: scale not given: the % may be the effect or the level left
[3] = test system: Plasmodium falciparum; assay: Antimalarial activity against Plasmodium falciparum infected in human assessed as parasite clearance time at 30 mg/kg, po; type: functional
[4] = AUC (0 to 24 hrs) in human at 150 mg, po for 3 days and measured on day 3 by LC-MS/MS analysis; details: in vivo
[5] = Volume of distribution in Wistar Hannover rat at 5 mg/kg, iv by LC-MS/MS analysis; type: ADME, organism-based; details: in vivo
[6] = Tmax in mouse at 24.6 mg/kg, po and measured up to 24 hrs by LC/MS analysis; type: ADME, organism-based; details: in vivo
[7] = Plasma protein binding in human; type: ADME, cell-free; details: read-out: PPB
[8] = test system: Plasmodium falciparum; assay: Antimalarial activity against Plasmodium falciparum K1 infected in human erythrocytes assessed as reduction in [3H]-hypoxanthine incorporation incubated for 48 hrs followed by addition of [3H]-hypoxanthine and measured after 24 hrs by liquid scintillation counting method; type: functional, organism-based
[9] = test system: Plasmodium falciparum; assay: Antimalarial activity against Plasmodium falciparum V1/S infected in human erythrocytes assessed as reduction in [3H]-hypoxanthine incorporation incubated for 48 hrs followed by addition of [3H]-hypoxanthine and measured after 24 hrs by liquid scintillation counting method; type: functional, organism-based
[10] = Clearance in Wistar Hannover rat at 5 mg/kg, iv by LC-MS/MS analysis; type: ADME, organism-based; details: in vivo
[11] = Half life in Beagle dog at 1 mg/kg, iv by LC-MS/MS analysis; details: in vivo
[12] = test system: Plasmodium berghei; assay: Antimalarial activity against Plasmodium berghei infected in NMRI mouse assessed as reduction in parasite growth at 10 mg/kg, po administered daily for 3 consecutive days by flow cytometric analysis relative to control; type: functional; set-up: scale not given: the % may be the effect or the level left
[13] = AUC (0 to 24 hrs) in human at 300 mg, po by LC-MS/MS analysis; details: in vivo
[14] = test system: Plasmodium berghei; assay: Antimalarial activity against Plasmodium berghei infected in NMRI mouse assessed as mean survival days at 100 mg/kg, po administered once and measured up to 30 days; type: functional
[15] = test system: Plasmodium falciparum; assay: Antimalarial activity against Plasmodium falciparum infected in human assessed as reduction in parasite growth at 30 mg/kg, po administered daily for 3 consecutive day and measured on day 5 relative to control; type: functional; set-up: scale not given: the % may be the effect or the level left
[16] = AUC (0 to 24 hrs) in human at 150 mg, po for 3 days and measured on day 1 by LC-MS/MS analysis; details: in vivo
[17] = test system: Plasmodium falciparum; assay: Antimalarial activity against Plasmodium falciparum infected in po dosed human assessed as reduction in parasite growth; type: functional
[18] = test system: Plasmodium vivax; assay: Antimalarial activity against Plasmodium vivax infected in human assessed as reduction in parasite growth at 30 mg/kg, po administered daily for 3 consecutive day and measured on day 5 relative to control; type: functional; set-up: scale not given: the % may be the effect or the level left
[19] = Oral bioavailability in rat at 23.7 mg/kg and measured up to 24 hrs by LC/MS analysis; type: ADME, organism-based; details: in vivo

C[C@H]1Cc2c([nH]c3cc(Cl)c(F)cc23)[C@@]2(N1)C(=O)Nc1ccc(Cl)cc12 [CIPARGAMIN]
EC50 [1]: 0.5 to 1.4 nM | Activity [2]: 99% | Time [3]: 10 h | AUC at 24 h [4]: 29400 ng·h/mL | Vd [5]: 3.18 L/kg | Tmax [6]: 1 h | fraction unbound [7]: < 0.003 | EC50 [8]: 0.5 to 1.4 nM | EC50 [9]: 0.5 to 1.4 nM | clearance [10]: 4.2 mL/min/kg | half-life [11]: 10.9 h | Activity [12]: 50% | AUC(0-t) at 24 h [13]: 36000 ng·h/mL | MSD [14]: >30 days | Activity [15]: 100% | AUC(0-t) at 24 h [16]: 15000 ng·h/mL | MIC [17]: 0.126 ng/mL (≈ 0.323 nM) | Activity [18]: 100% | bioavailability [19]: 100%
